Results taken from ChEMBL document CHEMBL5346933, “Design and synthesis of novel arylurea derivatives of aryloxy(1-phenylpropyl) alicyclic diamines with antimicrobial activity against multidrug-resistant Gram-positive bacteria” (Eur J Med Chem, 2023).
Values after ≈ are worked out from the molar mass of the structure shown. Active and inactive are the calls of the source. The rule behind the calls is not given here.

Assays:
[1] = test system: Staphylococcus aureus; test: Antibacterial activity against biofilm producer Staphylococcus aureus RN450 assessed as inhibition of bacterial growth incubated for 18 hrs by broth microdilution method; format: functional
[2] = test system: Cell membrane; test: Induction of cell membrane depolarization in vancomycin-resistant Enterococcus faecium clinical strain assessed as bacterial cells with polarized membrane potential at 4 times MIC incubated for 25 to 30 mins by DiOC2(3) probe based flow cytometry (reference value: 96.8%); format: subcellular; details: time 25-30 min
[3] = test system: Enterococcus faecalis; test: Bactericidal activity against Enterococcus faecalis ATCC 29212 assessed as reduction in colony forming units incubated for 18 hrs in broth followed by culturing on agar plate for 24 hrs; format: functional; details: time 42 hrs, read-out: MBC99.9
[4] = test system: Staphylococcus aureus; test: Antibacterial activity against vancomycin-intermediate Staphylococcus aureus ATCC 700699 assessed as inhibition of bacterial growth measured for 18 hrs by OD600 based analysis; format: functional, organism-based
[5] = test system: Cell membrane; test: Induction of cell membrane depolarization in Staphylococcus aureus Newman assessed as bacterial cells with depolarized membrane potential at 4 times MIC incubated for 25 to 30 mins by DiOC2(3) probe based flow cytometry (reference value: 1.6%); format: subcellular; details: time 25-30 min
[6] = test system: Cell membrane; test: Induction of cell membrane depolarization in vancomycin-resistant Enterococcus faecium clinical strain assessed as bacterial cells with depolarized membrane potential at 2XMIC incubated for 25 to 30 mins by DiOC2(3) probe based flow cytometry (reference value: 0.8%); format: subcellular; details: time 25-30 min
[7] = test system: Staphylococcus epidermidis; test: Bactericidal activity against methicillin- susceptible Staphylococcus epidermidis ATCC 12228 assessed as reduction in colony forming units incubated for 18 hrs in broth followed by culturing on agar plate for 24 hrs; format: functional; details: time 42 hrs, read-out: MBC99.9
[8] = Induction of hemolysis in horse RBC at 200 uM incubated for 1 hr; format: toxicity, cell-based, Equus caballus, Erythrocyte; details: horse red blood cells (erythrocytes), read-out: Activity
[9] = test system: Enterococcus faecium; test: Antibacterial activity against vancomycin-resistant Enterococcus faecium assessed as inhibition of bacterial growth measured for 18 hrs by OD600 based analysis; format: functional, organism-based
[10] = test system: Cell membrane; test: Induction of cell membrane depolarization in methicillin-resistant Staphylococcus aureus 19449 assessed as bacterial cells with depolarized membrane potential at MIC incubated for 25 to 30 mins by DiOC2(3) probe based flow cytometry (reference value: 0.7%); format: subcellular; details: time 25-30 min
[11] = test system: Enterococcus faecalis; test: Antibacterial activity against Enterococcus faecalis ATCC 29212 assessed as inhibition of bacterial growth measured for 18 hrs by OD600 based analysis; format: functional, organism-based
[12] = test system: Staphylococcus aureus; test: Bactericidal activity against biofilm producer Staphylococcus aureus RN450 assessed as reduction in colony forming units incubated for 18 hrs in broth followed by culturing on agar plate for 24 hrs; format: functional; details: time 42 hrs, read-out: MBC99.9
[13] = test system: Cell membrane; test: Induction of cell membrane depolarization in Staphylococcus aureus Newman assessed as bacterial cells with polarized membrane potential at MIC incubated for 25 to 30 mins by DiOC2(3) probe based flow cytometry (reference value: 94.3%); format: subcellular; details: time 25-30 min
[14] = test system: Cell membrane; test: Induction of cell membrane depolarization in vancomycin-resistant Enterococcus faecium clinical strain assessed as bacterial cells with polarized membrane potential at MIC incubated for 25 to 30 mins by DiOC2(3) probe based flow cytometry (reference value: 96.8%); format: subcellular; details: time 25-30 min
[15] = test system: Cell membrane; test: Induction of cell membrane depolarization in Staphylococcus aureus Newman assessed as bacterial cells with polarized membrane potential at 2XMIC incubated for 25 to 30 mins by DiOC2(3) probe based flow cytometry (reference value: 94.3%); format: subcellular; details: time 25-30 min
[16] = test system: Staphylococcus epidermidis; test: Bactericidal activity against biofilm producer Staphylococcus epidermidis ATCC 35984 assessed as reduction in colony forming units incubated for 18 hrs in broth followed by culturing on agar plate for 24 hrs; format: functional; details: time 42 hrs, read-out: MBC99.9
[17] = Cytotoxicity against human BJ cells assessed as cell viability at 25 ug/ml incubated for 24 hrs by MTT assay; format: toxicity, cell-based; details: at 25 µg/mL, read-out: Activity
[18] = Cytotoxicity against human MRC5 cells assessed as reduction in cell viability incubated for 24 hrs by MTT assay; format: toxicity, cell-based
[19] = test system: Streptococcus pneumoniae; test: Antibacterial activity against Oxacillin-resistant Streptococcus pneumoniae O/19/4541 assessed as inhibition of bacterial growth incubated for 18 hrs by broth microdilution method; format: functional
[20] = test system: Staphylococcus epidermidis; test: Ratio of MBC to MIC for linezolid-resistant Staphylococcus epidermidis NIL 4399/19; format: functional
[21] = test system: Staphylococcus epidermidis; test: Ratio of MBC to MIC for biofilm producer Staphylococcus epidermidis ATCC 35984; format: functional
[22] = test system: Staphylococcus aureus; test: Antibacterial activity against Staphylococcus aureus Newman assessed as inhibition of bacterial growth incubated for 18 hrs by broth microdilution method; format: functional
[23] = test system: Enterococcus faecalis; test: Ratio of MBC to MIC for Enterococcus faecalis ATCC 29212; format: functional
[24] = test system: Staphylococcus aureus; test: Bactericidal activity against methicillin-resistant Staphylococcus aureus clinical strain 19449 assessed as reduction in colony forming units incubated for 18 hrs in broth followed by culturing on agar plate for 24 hrs; format: functional; details: time 42 hrs, read-out: MBC99.9
[25] = test system: Staphylococcus epidermidis; test: Ratio of MBC to MIC for methicillin-susceptible Staphylococcus epidermidis ATCC 12228; format: functional
[26] = test system: Streptococcus pneumoniae; test: Antibacterial activity against macrolides-lincosamides and streptogramins B-resistant Streptococcus pneumoniae O/19/4199 assessed as inhibition of bacterial growth incubated for 18 hrs by broth microdilution method; format: functional
[27] = test system: Staphylococcus epidermidis; test: Antibacterial activity against linezolid-resistant Staphylococcus epidermidis NIL 4399/19 assessed as inhibition of bacterial growth incubated for 18 hrs by broth microdilution method; format: functional
[28] = test system: Cell membrane; test: Induction of cell membrane depolarization in Staphylococcus aureus Newman assessed as bacterial cells with polarized membrane potential at 4 times MIC incubated for 25 to 30 mins by DiOC2(3) probe based flow cytometry (reference value: 94.3%); format: subcellular; details: time 25-30 min
[29] = test system: Klebsiella pneumoniae; test: Antibacterial activity against Klebsiella pneumoniae ATCC 700603 assessed as inhibition of bacterial growth incubated for 18 hrs by broth microdilution method; format: functional
[30] = test system: Cell membrane; test: Induction of cell membrane depolarization in Staphylococcus aureus Newman assessed as bacterial cells with depolarized membrane potential at 2XMIC incubated for 25 to 30 mins by DiOC2(3) probe based flow cytometry (reference value: 1.6%); format: subcellular; details: time 25-30 min
[31] = test system: Escherichia coli; test: Antibacterial activity against Escherichia coli ATCC 25922 assessed as inhibition of bacterial growth incubated for 18 hrs by broth microdilution method; format: functional

O=C(Nc1cccc(Cl)c1)NC1CCN(CCC(Oc2cccc(C(F)(F)F)c2)c2ccccc2)CC1 (racemic)
MIC [1]: 1.56 µg/mL (≈ 2.93 µM)
Activity [2]: 1.5%
MBC [3]: 6.25 µg/mL (≈ 11.7 µM)
Activity [4]: Active
Activity [5]: 89.8%
Activity [6]: 92.7%
MBC [7]: 3.12 µg/mL (≈ 5.87 µM)
hemolysis at 1 h, 200 µM [8]: < 1%
Activity [9]: Active
Activity [10]: 91.6%
Activity [11]: Active
MBC [12]: 6.25 µg/mL (≈ 11.7 µM)
Activity [13]: 0.6%
Activity [14]: 59.3%
Activity [15]: 0.1%
MBC [16]: 6.25 µg/mL (≈ 11.7 µM)
viability at 24 h, 25 ug/ml [17]: 97%
IC50 at 24 h [18]: 12.5 µg/mL (≈ 23.5 µM)
MIC [19]: 12.5 µg/mL (≈ 23.5 µM)
Ratio [20]: 2
Ratio [21]: 4
MIC [22]: 1.56 µg/mL (≈ 2.93 µM)
Ratio [23]: 4
MBC [24]: 3.12 µg/mL (≈ 5.87 µM)
Ratio [25]: 1
MIC [26]: 6.25 µg/mL (≈ 11.7 µM)
MIC [27]: 3.12 µg/mL (≈ 5.87 µM)
Activity [28]: 0%
MIC [29]: > 12.5 µg/mL
Activity [30]: 89.3%
MIC [31]: > 12.5 µg/mL
